# In patent US9605047B2, “Compositions and methods for treating hypertension” (The Brigham and Women's Hospital, Inc., priority 2012, dated 2017):
# Tests used:
# HPAECs [1] = assay: Aldosterone levels in HPAEC culture medium by enzyme immunoassay; format: cell-based, human; conditions: pioglitazone 50 μM, 24 h
# Sprague-Dawley rats = assay: Monocrotaline (MCT) induction of PAH versus vehicle control; format: in vivo, rat
# Protocol: (§1) Animal model of PAH. Male Sprague-Dawley rats (age 12-14 weeks; Charles River Laboratories) were handled in accordance with US National Institutes of Health guidelines, and all procedures were approved by the local committee at Brigham and Women's Hospital, Harvard Medical School. All surgeries were performed under ketamine/xylazine anesthesia. For the monocrotaline (MCT) model of PAH, rats were fed standard chow and treated with a 0.5 ml intraperitoneal injection of MCT (50 mg/ml) (Sigma-Aldrich) or 0.9% saline as control. Rats were randomized to spironolactone (25 mg/kg/d) (Henry Schein) or vehicle added to the drinking water. For the prevention study, treatment with spironolactone began immediately following administration of MCT and continued for 23-25 days until hemodynamic and tissue analyses were performed. For the reversal study, a second experiment was performed in which rats were randomized to spironolactone or vehicle that was initiated 14 days following the administration of MCT and continued until hemodynamic and tissue analyses were performed 10 days later.
# (§2) Aldosterone and ET-1 levels. […] In selected experiments, cells were pre-treated for 6 h with BQ-788 (1.5 μM) (Sigma-Aldrich) to inhibit the ETB receptor. Aldosterone levels were measured in the medium of cells grown in phenol-free EGM-2 medium supplemented with charcoal-stripped serum, by enzyme immunoassay according to the manufacturer's instructions (Cayman). Results were standardized to cell protein concentration. Levels of aldosterone and ET-1 from plasma and whole lung tissue were measured by enzyme immunoassay according to the manufacturer's instructions (Cayman).
# Echocardiography. Transthoracic two-dimensional, M-mode, and Doppler imaging were performed in rats using a Vevo 2010 ultrasonographic system with a 15-MHz transducer. M-mode and Doppler tracings were acquired at a sweep speed of 200 mm/s following optimization of endocardial visualization and spectral display of Doppler profiles as described previously.^3 M-mode measurements of the right ventricular free-wall thickness were measured in the parasternal short-axis view just below the levels of the aortic valve, as described previously and in accordance to recommendations on M-mode measurement of the RV by the American Society of Echocardiography.^4 All studies were performed by a cardiologist and experienced sonographer who was blinded to the treatment group and was responsible for image analysis.
# (§3) Right heart catheterization. An incision was made in the anterior triangle of the right neck, and a dissection was performed to expose the right internal jugular vein. A 0.04×0.023 in.-sized polyvinylchloridine catheter with a curved end was flushed with heparinized saline and connected to a Grass pressure transducer and Grass model 79 polygraph. A 4.0-proline suture was used to achieve hemostasis at the distal end of the jugular vein prior to insertion of the catheter. The tube was advanced and RV systolic pressure was recorded, which was assumed to be equal to PASP in the setting of a normal pulmonic valve.^3 All right heart catheterizations were performed within 10 min of echocardiography and both procedures were completed within 30 min.
# [2] = test system: rats with SU-5416/hypoxia-induced PAH; assay: SU-5416/hypoxia-induced PAH, prevention study with eplerenone; format: in vivo, rat; conditions: 21 days
# Protocol: (§4) Sections were stained with a Gomori's Trichrome Staining Kit according to the manufacturer's instruction (Fischer Scientific). Image J™ software (NIH) was used to measure the per cent perivascular collagen deposition of muscularized arterioles with a diameter of 20-50 μm by subtracting the area of the lesser curvature from the greater curvature and dividing by the lesser curvature×100. Collagen was also assessed in tissue sections using Picrosirius Red Stain Kit according to the manufacturer's instruction (Polysciences). Lung sections were visualized under polarized light using an Olympus BX51™ microscope and images were acquired by the Picture Taker™ software package.
# as §3
# (§5) Left heart catheterization and hemodynamics. Following completion of the right heart catheterization, a deep neck dissection was performed to identify the right carotid artery. Without disrupting the carotid sinus or vagus nerve, a cross-clamp was applied to the proximal and distal aspects of the carotid artery. A high fidelity Millar catheter (Millar Instruments, Inc.) was inserted into the carotid artery, the distal clamp was released, and the catheter was advanced past the aortic arch to record central aortic blood pressure. The catheter was then advanced across the aortic valve and left ventricular end-diastolic pressure (LVEDP) were recorded. Cardiac index (CI) was derived from pressure-volume loop analysis as described previously.^5 The pulmonary vascular resistance index was calculated as [(mean pulmonary artery pressure-LVEDP)/CI)] and systemic vascular resistance index was calculated as [(mean arterial pressure-mean right atrial pressure)/CI].
# [3] = test system: ETB-dependent NO. generation in HPAECs; assay: NO. metabolites (NO2−, NO3−) in ET-1-stimulated HPAECs; format: cell-based, human
# Protocol: Cell culture and treatments. Human pulmonary artery endothelial cells (HPAECs) (Lonza) (male donors) were grown to confluence using phenol-free EGM-2 medium supplemented with 5% fetal bovine serum at 37° C., 5% CO2. Cells were passaged twice-weekly using 0.5% trypsin/EDTA, and experiments were performed on cells from passages 4-10. Aldosterone (Steraloids) and ET-1 (1-100 nM) (Sigma-Aldrich) were dissolved in dimethylsufloxide (10 nmol/L) and deoxygenated water, respectively, which served as vehicle controls. Cells were treated with aldosterone (10^−−10^−7 mol/L) for 24 h and in selected experiments co-incubated with the mineralocorticoid receptor inhibitor spironolactone (10 μM/l) (Sigma-Aldrich).
# HPAECs [4] = assay: Amplex Red assay of hydrogen peroxide levels in HPAECs; format: cell-based, human; conditions: aldosterone-treated HPAECs coincubated with spironolactone (10 μM), 24 h; n=3
# Protocol: Human pulmonary artery endothelial cells (HPAECs) (Lonza) (male donors) were grown to confluence using phenol-free EGM-2 medium supplemented with 5% fetal bovine serum at 37° C., 5% CO2. Cells were passaged twice-weekly using 0.5% trypsin/EDTA, and experiments were performed on cells from passages 4-10. Aldosterone (Steraloids) and ET-1 (1-100 nM) (Sigma-Aldrich) were dissolved in dimethylsufloxide (10 nmol/L) and deoxygenated water, respectively, which served as vehicle controls. Cells were treated with aldosterone (10^−−10^−7 mol/L) for 24 h and in selected experiments co-incubated with the mineralocorticoid receptor inhibitor spironolactone (10 μM/l) (Sigma-Aldrich).
# [5] = test system: Sprague-Dawley rats with MCT-induced PAH; assay: MCT model of PAH, reversal study (spironolactone started 14 days after MCT); format: in vivo, rat
# Protocol: as §1, §4, §3, §5
# [6] = test system: Sprague-Dawley rats with MCT-induced PAH; assay: MCT model of PAH, prevention study (spironolactone started at time of MCT injection); format: in vivo, rat
# Protocol: as §1, §2
# NO. metabolites. Nitrite (NO2^−) and nitrate (NO3^−) were measured in cell culture medium containing 2% fetal bovine serum and L-arginine (1 mmol/l) (Sigma-Aldrich) by 1(H)-naphthotriazole fluorescence (Cayman) as previously reported.^1 To measure NO2^− levels in whole lung tissue, lung specimens were harvested from rats and snap frozen in liquid nitrogen. Samples were thawed, homogenized in PBS (pH 7.4), and centrifuged at 14,000×g at 4° C. for 20 min. The supernatant was ultrafiltered using a 30 kDa molecular weight filter (Millpore), and the eluant was used to measure NO2^− levels according to manufacturer's instructions (Cayman).
# Lung tissue histology. Rat lung vessels were perfused with saline through the pulmonary artery and inflated with 10% phosphate-buffered formalin at a pressure of 20 cm H2O through the trachea as described previously.^2 After fixation for 24 h at 4° C., the lung tissue was processed and embedded in paraffin using a Hypercenter™ XP System and Embedding Center (Shandon, Pittsburg, Pa.). The paraffin-embedded lung tissue was cut into 5-μm sections. Hematoxylin and eosin staining was performed according to methods published previously.^3 The 3,3′-diaminobenzidine substrate method was used for smooth muscle α-actin immunohistochemical staining. The number of muscularized arteries with a diameter of 20-50 μm located distal to terminal bronchioles were counted in 20 consecutive fields (100×) per section,^2 and the cross-sectional area was assessed using Image J™ software (NIH).
# as §4
# Echocardiography. […]
# [7] = rats with MCT-induced PAH vs vehicle
# [8] = rats with MCT-induced PAH vs vehicle, 25 days
# [9] = spironolactone 25 mg/kg/d from day 14
# [10] = spironolactone 25 mg/kg/d in MCT-PAH rats
structure (smiles),measurement,setting,value
CCc1ccc(CCOc2ccc(CC3SC(=O)NC3=O)cc2)nc1 (centres unmarked) [pioglitazone],increase in aldosterone levels compared to V,HPAECs [1],365%
"C[C@H]1C(=O)O[C@@H]2CCN3CC=C(COC(=O)[C@](C)(O)[C@]1(C)O)[C@H]23 [MCT, monocrotaline]",increase in plasma ET-1 levels,Sprague-Dawley rats; MCT rat model of PAH,3 fold
same,right ventricular (RV) free-wall thickness,"Sprague-Dawley rats; MCT-treated rats vs vehicle control 0.58±0.05, n=6",1.1±0.05 mm
same,pulmonary artery systolic pressure (PASP),"Sprague-Dawley rats; MCT-treated rats vs vehicle control 28.3±2.7, right heart catheterization, n=6",89.3±5.3 mm Hg
same,pulmonary artery (PA) flow acceleration time (PAAT),"Sprague-Dawley rats; MCT-treated rats vs vehicle control 35.4±2.6, echocardiography, n=6",14.1 ± 1.2 ms
same,increase in aldosterone levels in lung tissue,Sprague-Dawley rats; [7],172%
same,increase in aldosterone levels in plasma,Sprague-Dawley rats; [7],406%
same,increase in ET-1 levels in lung homogenates,Sprague-Dawley rats; [8],174%
same,increase in ET-1 levels in plasma,Sprague-Dawley rats; [8],286%
COC(=O)[C@@H]1CC2=CC(=O)CC[C@]2(C)[C@@]23O[C@@H]2C[C@@]2(C)[C@@H](CC[C@@]24CCC(=O)O4)[C@H]13 [eplerenone],decrease in perivascular collagen,"[2]; eplerenone 0.6 mg/1 gm standard chow, n=5",67%
same,CI,[2]; eplerenone in chow,without significantly influencing
same,LVEDP,[2]; eplerenone in chow,without significantly influencing
same,MAP,[2]; eplerenone in chow,without significantly influencing
same,SVRi,[2]; eplerenone in chow,without significantly influencing
same,body weight,[2]; eplerenone in chow,without significantly influencing
same,heart rate,[2]; eplerenone in chow,without significantly influencing
same,PVRi,"[2]; eplerenone in chow, vs SU-5416/hypoxia 64.6±21.4, p=0.18, n=3-4",43.9±8.7 mm Hg*min*gm/ml
same,PASP,"[2]; eplerenone in chow, vs SU-5416/hypoxia 80.5±4.9, p=0.048, n=5",61.5±6.5 mm Hg
CC(=O)S[C@@H]1CC2=CC(=O)CC[C@]2(C)[C@H]2CC[C@@]3(C)[C@@H](CC[C@@]34CCC(=O)O4)[C@H]12 [spironolactone],"NO2^− levels in aldosterone-treated, ET-1-stimulated cells","[3]; coincubation with spironolactone 10 μM, HPAECs",restored
same,increase in NOx levels,"[3]; spironolactone coincubation in aldosterone-treated cells stimulated with ET-1, n=3",87%
same,abrogation of aldosterone-induced H2O2 accumulation,HPAECs [4],56%
same,LVEDP,[5]; [9],without changes
same,MAP,[5]; [9],without changes
same,cardiac index (CI),[5]; [9],without changes
same,heart rate,[5]; [9],without changes
same,indexed systemic vascular resistance (SVRi),[5]; [9],without changes
same,indexed pulmonary vascular resistance (PVRi),"[5]; spironolactone 25 mg/kg/d from day 14, vs V-treated PAH 35.9±3.2, n=4",21.5±3.2 mm Hg*min*g/ml
same,PASP,"[5]; spironolactone 25 mg/kg/d from day 14, vs V-treated PAH 60.3±5.2, n=6",39.5±4.1 mm Hg
same,decrease in levels of perivascular collagen,"[5]; spironolactone 25 mg/kg/d from day 14 for 10 days vs V-treated PAH, n=6",71%
same,body weight,[6]; [10],without significantly decreasing plasma ET-1 levels or influencing
same,left ventricular end-diastolic pressure (LVEDP),[6]; [10],without significantly decreasing plasma ET-1 levels or influencing
same,mean arterial pressure (MAP),[6]; [10],without significantly decreasing plasma ET-1 levels or influencing
same,plasma ET-1 levels,[6]; [10],without significantly decreasing
same,PASP,"[6]; spironolactone 25 mg/kg/d in drinking water, 23-25 days, vs V-treated PAH 89.3±5.2, n=6",69.5±5.4 mm Hg
same,decrease in perivascular collagen deposition (Gomori's trichrome),"[6]; spironolactone 25 mg/kg/d vs V-treated rats with PAH, n=4",77%
same,RV weight,"[6]; spironolactone 25 mg/kg/d, vs V-treated PAH 0.43±0.07, p=0.32, n=5",0.35±0.04 RV weight/LV septum weight
same,RV free-wall thickness,"[6]; spironolactone 25 mg/kg/d, vs V-treated PAH 1.07±0.05, n=6",0.86±0.03 mm
same,PAAT,"[6]; spironolactone 25 mg/kg/d, vs V-treated PAH 14.1±1.2, n=6",22.3 ± 2.2 ms
same,cross-sectional luminal area of vessels,"[6]; spironolactone 25 mg/kg/d, vs V-treated PAH 14.3±0.7, n=5",35.4±1.9 % cross sectional area
same,number of α-actin-stained muscularized distal pulmonary arterioles,"[6]; spironolactone 25 mg/kg/d, vs V-treated PAH 77.7±6.3, n=5",59.7±0.4 muscularized pulmonary arterioles/20 high powered fields
same,nitrite (NO2^−) in lung tissue specimens,"[6]; spironolactone 25 mg/kg/d, vs V-treated PAH 506±86, n=4",759±55 μM/μg protein
